Measurements: patent US20260001928A1 (CORTERIA PHARMACEUTICALS, priority 2022, published 2026)
pEC50: −log10 of the molar value. *1 amine or outer side, *2 acyl side, *3 side chain or, on linkers, in order; H or OH if unused. Where a SMILES comes first, the peptide text is derived from it. Side-chain parts run from the residue outwards. [ ]: non-standard residue; d: D form. The star is where a group is joined. C20 diacid = O=C(O)CCCCCCCCCCCCCCCCCCC(=O)*; γGlu = O=C(O)[C@H](CCC(=O)[*:2])N[*:1]; Myristoyl = CCCCCCCCCCCCCC(=O)*; Api = NC1(C(=O)O)CCNCC1; Pentanoyl = CCCCC(=O)*; AEEA = NCCOCCOCC(=O)O; Aib = CC(C)(N)C(=O)O

Experiments:
[1] = target: T1, human CRF2a receptor (Homo sapiens, UniProt Q13324); test: Activity at human CRF2a receptor, cAMP functional assay in TeloHEAC cells; format: cell-based; details: TeloHEAC cells stably expressing human CRF2a receptor, relative to urocortin 2 (100 nM = 100%)
T1 construct: expressed in transfected cells; host or cells: TeloHEAC cells
T1 sequence (Q13324 1-411): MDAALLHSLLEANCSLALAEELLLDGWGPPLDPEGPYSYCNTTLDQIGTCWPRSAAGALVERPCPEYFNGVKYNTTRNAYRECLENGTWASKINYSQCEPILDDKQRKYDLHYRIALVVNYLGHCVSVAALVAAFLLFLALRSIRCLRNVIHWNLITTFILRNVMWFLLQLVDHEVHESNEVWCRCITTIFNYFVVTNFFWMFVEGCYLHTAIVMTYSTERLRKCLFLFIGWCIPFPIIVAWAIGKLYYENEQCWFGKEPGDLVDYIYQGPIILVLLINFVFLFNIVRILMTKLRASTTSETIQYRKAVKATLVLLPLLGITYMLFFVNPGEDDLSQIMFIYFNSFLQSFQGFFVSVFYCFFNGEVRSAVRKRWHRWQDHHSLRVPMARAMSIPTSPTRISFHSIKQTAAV
How it was run: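 TeloHEAC cells stably expressing human CRF2a (10000 cells/well) were treated with 16-point 1:2 compound dilutions in HBSS/20 mM HEPES with IBMX for 30 min at 37° C. cAMP was read by HTRF (665/620 nm ratio). EC50 was the concentration giving 50% activation, with 100 nM urocortin 2 set as 100%.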

[2] = target: T2, CFR1R receptor (Homo sapiens, UniProt P34998); test: Activity at anti-target CFR1R receptor, cAMP assay in CRF1R-overexpression CHO-K1 cells; format: cell-based; details: 100% = Sauvagine at 100 nM; for pEC50: cAMP
T2 construct: host or cells: CHO-K1 (clone 2)
T2 sequence (P34998 24-415): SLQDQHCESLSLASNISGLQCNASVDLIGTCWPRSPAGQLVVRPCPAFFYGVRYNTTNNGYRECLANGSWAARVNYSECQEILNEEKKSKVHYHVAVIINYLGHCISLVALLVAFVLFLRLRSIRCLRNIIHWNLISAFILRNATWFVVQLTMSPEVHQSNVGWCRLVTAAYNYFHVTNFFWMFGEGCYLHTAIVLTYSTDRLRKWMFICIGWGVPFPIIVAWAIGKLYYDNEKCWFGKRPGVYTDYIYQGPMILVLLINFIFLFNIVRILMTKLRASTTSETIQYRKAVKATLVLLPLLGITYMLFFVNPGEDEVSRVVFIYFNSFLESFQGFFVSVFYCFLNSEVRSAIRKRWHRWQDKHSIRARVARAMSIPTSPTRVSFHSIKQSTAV
How it was run: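 The method mirrors that used with TeloHAEC cells. Here, thawed clone 2 cells seeded at 4000 cells/well are tested, and 100 nM Sauvagine sets the top of the activation scale.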

Row | Compound | pEC50 [1] | Emax (% I) [2] | pEC50 [2]
1 | CC[C@H](C)[C@H](NC(C)=O)C(=O)N[C@H](C(=O)N[C@@H](CC(C)C)C(=O)N[C@@H](CO)C(=O)N[C@@H](CC(C)C)C(=O)N[C@@H](CC(=O)O)C(=O)N[C@@H](C(=O)N1CCC[C@H]1C(=O)N[C@H](C(=O)NCC(=O)N[C@@H](CC(C)C)C(=O)N[C@@H](CCCCNC(=O)CC[C@H](NC(=O)CCCCCCCCCCCCCCCCCCC(=O)O)C(=O)O)C(=O)N[C@@H](CCCCN)C(=O)N[C@H](C(=O)N[C@@H](CC(C)C)C(=O)N[C@@H](CC(C)C)C(=O)N[C@@H](CCC(=O)O)C(=O)N[C@@H](CCC(N)=O)C(=O)N[C@@H](CCC(=O)O)C(=O)N[C@@H](CCCCN)C(=O)N[C@@H](CCC(N)=O)C(=O)N[C@@H](CCCCN)C(=O)N[C@@H](CCCCN)C(=O)N[C@@H](CCC(N)=O)C(=O)N[C@@H](CCCNC(=N)N)C(=O)N[C@@H](CCC(=O)O)C(=O)N[C@@H](CCC(N)=O)C(=O)N[C@@H](C)C(=O)N[C@@H](CCC(=O)O)C(=O)N[C@H](C(=O)N[C@@H](CC(N)=O)C(=O)NC(C)(C)C(=O)N[C@@H](CCC(N)=O)C(=O)N[C@H](C(=O)N[C@@H](CC(C)C)C(=O)N[C@@H](C)C(=O)N[C@@H](CCC(N)=O)C(=O)N[C@H](C(N)=O)C(C)C)[C@@H](C)CC)[C@@H](C)O)[C@@H](C)CC)[C@@H](C)CC)C(C)C)C(C)C [compound 226] (Ac-IVLSLD[dV]PIGLK([γGlu-C20 diacid])KILLEQEKQKKQREQAETN[Aib]QILAQV-NH2) | 9.74 | 82 % I | 7.38
2 | CC[C@H](C)[C@H](NC(C)=O)C(=O)N[C@H](C(=O)N[C@@H](CC(C)C)C(=O)N[C@@H](CO)C(=O)N[C@@H](CC(C)C)C(=O)N[C@@H](CC(=O)O)C(=O)N[C@@H](C(=O)N1CCC[C@H]1C(=O)N[C@H](C(=O)NCC(=O)N[C@@H](CC(C)C)C(=O)N[C@@H](CCCCNC(=O)CC[C@H](NC(=O)CCCCCCCCCCCCCCCCCCC(=O)O)C(=O)O)C(=O)N[C@@H](CCCCN)C(=O)N[C@H](C(=O)N[C@@H](CC(C)C)C(=O)N[C@@H](CC(C)C)C(=O)N[C@@H](CCC(=O)O)C(=O)N[C@@H](CCC(N)=O)C(=O)N[C@@H](CCC(=O)O)C(=O)N[C@@H](CCCCN)C(=O)N[C@@H](CCC(N)=O)C(=O)N[C@@H](CCCCN)C(=O)N[C@@H](CCCCN)C(=O)N[C@@H](CCC(N)=O)C(=O)N[C@@H](CCCNC(=N)N)C(=O)N[C@@H](CCC(=O)O)C(=O)N[C@@H](CCC(N)=O)C(=O)N[C@@H](C)C(=O)N[C@@H](CCC(=O)O)C(=O)N[C@H](C(=O)N[C@@H](CC(N)=O)C(=O)NC1(C(=O)N[C@@H](CCC(N)=O)C(=O)N[C@H](C(=O)N[C@@H](CC(C)C)C(=O)N[C@@H](C)C(=O)N[C@@H](CCC(N)=O)C(=O)N[C@H](C(N)=O)C(C)C)[C@@H](C)CC)CCNCC1)[C@@H](C)O)[C@@H](C)CC)[C@@H](C)CC)C(C)C)C(C)C [compound 227] (Ac-IVLSLD[dV]PIGLK([γGlu-C20 diacid])KILLEQEKQKKQREQAETN[Api]QILAQV-NH2) | 9.70 | 97 % I | –
3 | CC[C@H](C)[C@H](NC(C)=O)C(=O)N[C@H](C(=O)N[C@@H](CC(C)C)C(=O)N[C@@H](CO)C(=O)N[C@@H](CC(C)C)C(=O)N[C@@H](CC(=O)O)C(=O)N[C@@H](C(=O)N1CCC[C@H]1C(=O)N[C@H](C(=O)N[C@@H](CCCCN)C(=O)N[C@@H](CC(C)C)C(=O)N[C@@H](CCCCNC(=O)COCCOCCNC(=O)COCCOCCNC(=O)CC[C@H](NC(=O)CCCCCCCCCCCCCCCCCCC(=O)O)C(=O)O)C(=O)N[C@@H](CCCCN)C(=O)N[C@H](C(=O)N[C@@H](CC(C)C)C(=O)N[C@@H](CC(C)C)C(=O)N[C@@H](CCC(=O)O)C(=O)N[C@@H](CCC(N)=O)C(=O)N[C@@H](CCC(=O)O)C(=O)N[C@@H](CCCCN)C(=O)N[C@@H](CCC(N)=O)C(=O)N[C@@H](CCCCN)C(=O)N[C@@H](C)C(=O)N[C@@H](CCC(N)=O)C(=O)N[C@@H](CCCNC(=N)N)C(=O)N[C@@H](CCC(=O)O)C(=O)N[C@@H](CCC(N)=O)C(=O)N[C@@H](C)C(=O)N[C@@H](CCC(=O)O)C(=O)N[C@H](C(=O)N[C@@H](CC(N)=O)C(=O)NC(C)(C)C(=O)N[C@@H](CCC(N)=O)C(=O)N[C@H](C(=O)N[C@@H](CC(C)C)C(=O)N[C@@H](C)C(=O)N[C@@H](CCC(N)=O)C(=O)N[C@H](C(N)=O)C(C)C)[C@@H](C)CC)[C@@H](C)O)[C@@H](C)CC)[C@@H](C)CC)C(C)C)C(C)C [compound 240] (Ac-IVLSLD[dV]PIKLK([AEEA-AEEA-γGlu-C20 diacid])KILLEQEKQKAQREQAETN[Aib]QILAQV-NH2) | 9.66 | 4 % I | < 6.60

More lines, now with the values ahead:

Row | pEC50 [1] | Emax (% I) [2] | pEC50 [2] | Compound
4 | 10.05 | 70 % I | – | CCCCCCCCCCCCCC(=O)N[C@H](C(=O)N[C@@H](CC(C)C)C(=O)N[C@@H](CO)C(=O)N[C@@H](CC(C)C)C(=O)N[C@@H](CC(=O)O)C(=O)N[C@@H](C(=O)N1CCC[C@H]1C(=O)N[C@H](C(=O)N[C@@H](CCCCN)C(=O)N[C@@H](CC(C)C)C(=O)N[C@@H](CCCCNC(=O)CC[C@H](NC(=O)CCCCCCCCCCCCCCCCCCC(=O)O)C(=O)O)C(=O)N[C@@H](CCCCN)C(=O)N[C@H](C(=O)N[C@@H](CC(C)C)C(=O)N[C@@H](CC(C)C)C(=O)N[C@@H](CCC(=O)O)C(=O)N[C@@H](CCC(N)=O)C(=O)N[C@@H](CCC(=O)O)C(=O)N[C@@H](CCCCN)C(=O)N[C@@H](CCC(N)=O)C(=O)N[C@@H](CCCCN)C(=O)N[C@@H](CCCCN)C(=O)N[C@@H](CCC(N)=O)C(=O)N[C@@H](CCCNC(=N)N)C(=O)N[C@@H](CCC(=O)O)C(=O)N[C@@H](CCC(N)=O)C(=O)N[C@@H](C)C(=O)N[C@@H](CCC(=O)O)C(=O)N[C@H](C(=O)N[C@@H](CC(N)=O)C(=O)NC(C)(C)C(=O)N[C@@H](CCC(N)=O)C(=O)N[C@H](C(=O)N[C@@H](CC(C)C)C(=O)N[C@@H](C)C(=O)N[C@@H](CCC(N)=O)C(=O)N[C@H](C(N)=O)C(C)C)[C@@H](C)CC)[C@@H](C)O)[C@@H](C)CC)[C@@H](C)CC)C(C)C)C(C)C [compound 225] (Myristoyl-VLSLD[dV]PIKLK([γGlu-C20 diacid])KILLEQEKQKKQREQAETN[Aib]QILAQV-NH2)
5 | 9.72 | 62 % I | – | CCCCC(=O)N[C@H](C(=O)N[C@@H](CC(C)C)C(=O)N[C@@H](CO)C(=O)N[C@@H](CC(C)C)C(=O)N[C@@H](CC(=O)O)C(=O)N[C@@H](C(=O)N1CCC[C@H]1C(=O)N[C@H](C(=O)NCC(=O)N[C@@H](CC(C)C)C(=O)N[C@@H](CCCCNC(=O)CC[C@H](NC(=O)CCCCCCCCCCCCCCCCCCC(=O)O)C(=O)O)C(=O)N[C@@H](CCCCN)C(=O)N[C@H](C(=O)N[C@@H](CC(C)C)C(=O)N[C@@H](CC(C)C)C(=O)N[C@@H](CCC(=O)O)C(=O)N[C@@H](CCC(N)=O)C(=O)N[C@@H](CCC(=O)O)C(=O)N[C@@H](CCCCN)C(=O)N[C@@H](CCC(N)=O)C(=O)N[C@@H](CCCCN)C(=O)N[C@@H](CCCCN)C(=O)N[C@@H](CCC(N)=O)C(=O)N[C@@H](CCCNC(=N)N)C(=O)N[C@@H](CCC(=O)O)C(=O)N[C@@H](CCC(N)=O)C(=O)N[C@@H](C)C(=O)N[C@@H](CCC(=O)O)C(=O)N[C@H](C(=O)N[C@@H](CC(N)=O)C(=O)NC(C)(C)C(=O)N[C@@H](CCC(N)=O)C(=O)N[C@H](C(=O)N[C@@H](CC(C)C)C(=O)N[C@@H](C)C(=O)N[C@@H](CCC(N)=O)C(=O)N[C@H](C(N)=O)C(C)C)[C@@H](C)CC)[C@@H](C)O)[C@@H](C)CC)[C@@H](C)CC)C(C)C)C(C)C [compound 228] (Pentanoyl-VLSLD[dV]PIGLK([γGlu-C20 diacid])KILLEQEKQKKQREQAETN[Aib]QILAQV-NH2)
